Laboratory results taken from PubChem BioAssay (NCI).
Several values for one entry are separate records, joined by “and”; a condition that tells them apart may be missing. Equal entries are not always repeated.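 Test compounds were applied to cells in 96-well plates for 48 hours at 5 doses. Abbreviation: GI50, concentration required for 50% inhibition of growth. Definition used: TGI = concentration required for complete inhibition of growth.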

Tests used:
Assay in all cases: growth of human tumour cells (NCI), 48 h
[1] = tested on: NCI-H23 lung
[2] = tested on: BT-549 breast
[3] = tested on: SR leukemia
[4] = tested on: MDA-MB-435
[5] = tested on: NCI-H460 lung
[6] = tested on: SW-620 colon
[7] = tested on: OVCAR-8 ovarian
[8] = tested on: IGROV1 ovarian
[9] = tested on: UACC-62 melanoma
[10] = tested on: A498 renal

SMILES | TGI [1] | TGI [2] | TGI [3] | TGI [4] | TGI [5] | TGI [6] | TGI [7] | TGI [8] | TGI [9] | TGI [10] | GI50 [1] | GI50 [5] | GI50 [6] | GI50 [7] | GI50 [8] | GI50 [10] | GI50 [2] | GI50 [3] | GI50 [4] | GI50 [9]
COc1ccc(Cc2nc3cc(Cl)ccc3o2)cc1 | > 100 µM | 64.4 µM | > 100 µM | 69 µM | > 100 µM | > 100 µM | > 100 µM | > 100 µM | > 100 µM | – | – | – | – | – | – | – | – | – | – | –
CCOc1cc(NC(C)=O)ccc1C(=O)N/N=C/c1ccco1 | > 100 µM | > 100 µM | 31.3 µM | > 100 µM | > 100 µM | > 100 µM | > 100 µM | > 100 µM | > 100 µM | > 100 µM | – | – | – | – | – | – | – | – | – | –
C=C1CCCC(C)(C)[C@@H]1CC/C(C)=C/Cn1c2cccc(=O)c-2nc2ccccc21 | – | – | – | – | – | – | – | 8.87 µM and 6.11 µM | 2.47 µM | 70.2 µM and 14.1 µM | 5.39 µM | 14 µM | 5.87 µM | 4.28 µM | 2.71 µM | 7.76 µM | – | – | – | –
Cc1ccc2c(=O)c(-c3nnsn3)c[nH]c2n1 | > 100 µM | > 100 µM | – | > 100 µM | > 100 µM | > 100 µM | > 100 µM | > 100 µM | > 100 µM | > 100 µM | – | – | – | – | – | – | – | – | – | –
COc1cc(/C=C2\N=C(c3ccccc3)N(c3nc4c(Cl)cc(Cl)cc4s3)C2=O)ccc1O | – | 77.4 µM | 29.6 µM | > 100 µM | > 100 µM | > 100 µM | > 100 µM | > 100 µM | > 100 µM | 49 µM | – | – | – | – | – | – | – | – | – | –
CC(Br)C(=O)c1ccc2cc(Br)c3ccccc3c2c1 (stereo not drawn) | 29.7 µM | 28.7 µM | 21.2 µM | 29.9 µM | 30.9 µM | 26.3 µM | 27.5 µM | 26.3 µM | 28.7 µM | 33.1 µM | – | – | – | – | – | – | – | – | – | –
Clc1ccc(NCc2nnc(COc3ccc(OCc4nnc(CNc5ccc(Cl)cc5)o4)c(Cl)c3)o2)cc1 | > 100 µM | > 100 µM | 13.6 µM | > 100 µM | > 100 µM | > 100 µM | > 100 µM | > 100 µM | > 100 µM | > 100 µM | – | – | – | – | – | – | – | – | – | –
NC(CCc1ccccc1)(C(=O)O)c1ccccc1 (stereo not drawn) | > 100 µM | > 100 µM | > 100 µM | > 100 µM | > 100 µM | > 100 µM | > 100 µM | > 100 µM | > 100 µM | > 100 µM | – | – | – | – | – | – | – | – | – | –
O=P(O)(O)OP(=O)(O)O | > 100 µM | > 100 µM | > 100 µM | > 100 µM | > 100 µM | > 100 µM | > 100 µM | > 100 µM | > 100 µM | > 100 µM | – | – | – | – | – | – | – | – | – | –
O=C(N/N=C\c1ccc([N+](=O)[O-])cc1)Nc1ccccc1 | > 100 µM | > 100 µM | > 100 µM | > 100 µM | > 100 µM | > 100 µM | > 100 µM | > 100 µM | > 100 µM | > 100 µM | – | – | – | – | – | – | – | – | – | –
CN(C)c1ccc(/C=C2\C[C@H]3[C@@H]4CCC5=CC(=O)CC[C@]5(C)[C@H]4CC[C@]3(C)C2=O)cc1 | > 100 µM | > 100 µM | > 100 µM | – | 51.1 µM | > 100 µM | > 100 µM | > 100 µM | > 100 µM | > 100 µM | – | – | – | – | – | – | – | – | – | –
CN(C)C/C=C(/c1ccc(Br)cc1)c1cccnc1 | > 100 µM | > 100 µM | > 100 µM | > 100 µM | > 100 µM | > 100 µM | > 100 µM | > 100 µM | 39.1 µM | 57.8 µM | – | – | – | – | – | – | – | – | – | –
Cc1cc(O)c2c(c1O)C(=O)c1c(O)ccc(O)c1C2=O | > 100 µM | > 100 µM | > 100 µM | > 100 µM | > 100 µM | > 100 µM | > 100 µM | > 100 µM | > 100 µM | > 100 µM | – | – | – | – | – | – | – | – | – | –
COc1cc(/C=C2/C[C@H]3[C@@H]4CCC5=CC(=O)CC[C@]5(C)[C@H]4CC[C@]3(C)NC2=O)cc(OC)c1OC | 57.3 µM | 53.7 µM | – | > 100 µM | > 100 µM | > 100 µM | 70.7 µM | 94.7 µM | > 100 µM | 41.6 µM | – | – | – | – | – | – | – | – | – | –
C[C@H](Nc1ccc(C#N)n(C)c1=O)c1cc2cc(Cl)ccc2[nH]c1=O | > 100 µM | 70.1 µM | > 100 µM | 88.7 µM | > 100 µM | > 100 µM | > 100 µM | 89.7 µM | 77.6 µM | 92.2 µM | 35.4 µM | 32.8 µM | 46.3 µM | 33.2 µM | 16 µM | 20.4 µM | 12.2 µM | 27.7 µM | 28.6 µM | 20.1 µM
CC(C)(C)OC(=O)N1C(C2=COc3ccccc3O2)=COc2cccnc21 | 3.25 µM | 5.42 µM | 5.9 µM | 3.67 µM | 3.67 µM | 4.56 µM | 4.06 µM | 3.35 µM | 3.17 µM | 3.32 µM | – | – | – | – | – | – | – | – | – | –
CCCCCCOC(=O)C(N)Cc1ccc(OC)cc1 (stereo not drawn) | > 100 µM | > 100 µM | > 100 µM | > 100 µM | > 100 µM | > 100 µM | > 100 µM | > 100 µM | > 100 µM | – | – | – | – | – | – | – | – | – | – | –
O=C(COC(c1ccc(F)cc1)c1ccc(F)cc1)N1CCN(CCCc2ccccc2)CC1 | 7.91 µM | 13.7 µM | 18.6 µM | 13 µM | 13.5 µM | > 100 µM | 14.6 µM | 19 µM | 16.5 µM | 12.6 µM | – | – | – | – | – | – | – | – | – | –
